According to ChEMBL document CHEMBL1817546, “The synthesized novel fluorinated compound (LJJ-10) induces death receptor- and mitochondria-dependent apoptotic cell death in the human osteogenic sarcoma U-2 OS cells” (Eur J Med Chem, 2011):

Tests used:
Type in all cases: functional, cell-based
[1] = test system: U-937; experiment: Cytotoxicity against human U937 cells after 48 hrs by MTT assay; conditions: U-937, 48 h
[2] = test system: U2OS; experiment: Cytotoxicity against human U2OS cells after 48 hrs by MTT assay
[3] = test system: MDA-MB-231; experiment: Cytotoxicity against human MDA-MB-231 cells after 48 hrs by MTT assay; conditions: MDA-MB-231, 48 h
[4] = test system: COLO 205; experiment: Cytotoxicity against human COLO205 cells after 48 hrs by MTT assay; conditions: COLO 205, 48 h
[5] = Cytotoxicity against human HT29-AK cells after 48 hrs by MTT assay
[6] = test system: HL-60; experiment: Cytotoxicity against human HL60 cells after 48 hrs by MTT assay; conditions: HL-60, 48 h
[7] = test system: MCF7; experiment: Cytotoxicity against human MCF7 cells after 48 hrs by MTT assay; conditions: MCF7, 48 h

Oc1ccccc1Nc1nc(-c2cccc(F)c2)nc2ccc(F)cc12
IC50 [1]: 46.2 µM | IC50 [2]: 41.4 µM | IC50 [3]: > 50 µM | IC50 [4]: > 50 µM | IC50 [5]: > 50 µM | IC50 [6]: 44.4 µM | IC50 [7]: > 50 µM

Oc1ccc(Nc2nc(-c3cccc(F)c3)nc3ccc(F)cc23)cc1
IC50 [1]: > 50 µM | IC50 [2]: > 50 µM | IC50 [3]: > 50 µM | IC50 [4]: > 50 µM | IC50 [5]: > 50 µM | IC50 [6]: > 50 µM | IC50 [7]: > 50 µM

Fc1cccc(-c2nc(Nc3ccccc3)c3cc(F)ccc3n2)c1
IC50 [1]: 45.5 µM | IC50 [2]: 47.6 µM | IC50 [3]: 47.8 µM | IC50 [4]: 49.7 µM | IC50 [5]: 48.3 µM | IC50 [6]: 48.3 µM | IC50 [7]: 49.7 µM

Fc1cccc(-c2nc(Nc3ccccc3Br)c3cc(F)ccc3n2)c1
IC50 [1]: > 50 µM | IC50 [2]: > 50 µM | IC50 [3]: > 50 µM | IC50 [4]: > 50 µM | IC50 [5]: > 50 µM | IC50 [6]: > 50 µM | IC50 [7]: > 50 µM

Fc1cccc(-c2nc(Nc3ccccc3)c3ccccc3n2)c1
IC50 [1]: > 50 µM | IC50 [2]: > 50 µM | IC50 [3]: > 50 µM | IC50 [4]: > 50 µM | IC50 [5]: > 50 µM | IC50 [6]: > 50 µM | IC50 [7]: > 50 µM

COc1ccccc1Nc1nc(-c2cccc(F)c2)nc2ccc(F)cc12
IC50 [1]: > 50 µM | IC50 [2]: > 50 µM | IC50 [3]: > 50 µM | IC50 [4]: > 50 µM | IC50 [5]: > 50 µM | IC50 [6]: > 50 µM | IC50 [7]: > 50 µM

Nc1cccc(Nc2nc(-c3cccc(F)c3)nc3ccc(F)cc23)c1
IC50 [1]: > 50 µM | IC50 [2]: 49.6 µM | IC50 [3]: > 50 µM | IC50 [4]: > 50 µM | IC50 [5]: > 50 µM | IC50 [6]: > 50 µM | IC50 [7]: > 50 µM

COc1ccc(Nc2nc(-c3cccc(F)c3)nc3ccc(F)cc23)cc1
IC50 [1]: 41.1 µM | IC50 [2]: 32.3 µM | IC50 [3]: 47.3 µM | IC50 [4]: 46.8 µM | IC50 [5]: 42.3 µM | IC50 [6]: 38.6 µM | IC50 [7]: 48.4 µM

Oc1cccc(Nc2nc(-c3cccc(F)c3)nc3ccc(F)cc23)c1
IC50 [1]: > 50 µM | IC50 [2]: 33.3 µM | IC50 [3]: > 50 µM | IC50 [4]: > 50 µM | IC50 [5]: > 50 µM | IC50 [6]: > 50 µM | IC50 [7]: > 50 µM

Fc1ccc2nc(-c3ccccc3)nc(Nc3ccccc3)c2c1
IC50 [1]: > 50 µM | IC50 [2]: > 50 µM | IC50 [3]: > 50 µM | IC50 [4]: > 50 µM | IC50 [5]: > 50 µM | IC50 [6]: > 50 µM | IC50 [7]: > 50 µM

Fc1cccc(-c2nc(Nc3ccccc3Cl)c3cc(F)ccc3n2)c1
IC50 [1]: > 50 µM | IC50 [2]: > 50 µM | IC50 [3]: > 50 µM | IC50 [4]: > 50 µM | IC50 [5]: > 50 µM | IC50 [6]: > 50 µM | IC50 [7]: > 50 µM

c1ccc(Nc2nc(-c3ccccc3)nc3ccccc23)cc1
IC50 [1]: > 50 µM | IC50 [2]: > 50 µM | IC50 [3]: > 50 µM | IC50 [4]: > 50 µM | IC50 [5]: > 50 µM | IC50 [6]: > 50 µM | IC50 [7]: > 50 µM

Fc1cccc(-c2nc(Nc3ccc(Br)cc3)c3cc(F)ccc3n2)c1
IC50 [1]: > 50 µM | IC50 [2]: > 50 µM | IC50 [3]: > 50 µM | IC50 [4]: > 50 µM | IC50 [5]: > 50 µM | IC50 [6]: > 50 µM | IC50 [7]: > 50 µM

Fc1cccc(-c2nc(Nc3cccc(Br)c3)c3cc(F)ccc3n2)c1
IC50 [1]: > 50 µM | IC50 [2]: > 50 µM | IC50 [3]: > 50 µM | IC50 [4]: > 50 µM | IC50 [5]: > 50 µM | IC50 [6]: > 50 µM | IC50 [7]: > 50 µM

Fc1ccc(Nc2nc(-c3cccc(F)c3)nc3ccc(F)cc23)cc1
IC50 [1]: > 50 µM | IC50 [2]: > 50 µM | IC50 [3]: > 50 µM | IC50 [4]: > 50 µM | IC50 [5]: > 50 µM | IC50 [6]: > 50 µM | IC50 [7]: > 50 µM

Cc1ccc(Nc2nc(-c3cccc(F)c3)nc3ccc(F)cc23)cc1
IC50 [1]: > 50 µM | IC50 [2]: > 50 µM | IC50 [3]: > 50 µM | IC50 [4]: > 50 µM | IC50 [5]: > 50 µM | IC50 [6]: > 50 µM | IC50 [7]: > 50 µM

Cc1cccc(Nc2nc(-c3cccc(F)c3)nc3ccc(F)cc23)c1
IC50 [1]: > 50 µM | IC50 [2]: > 50 µM | IC50 [3]: > 50 µM | IC50 [4]: > 50 µM | IC50 [5]: > 50 µM | IC50 [6]: > 50 µM | IC50 [7]: > 50 µM

Nc1ccc(Nc2nc(-c3cccc(F)c3)nc3ccc(F)cc23)cc1
IC50 [1]: > 50 µM | IC50 [2]: 44.1 µM | IC50 [3]: > 50 µM | IC50 [4]: > 50 µM | IC50 [5]: > 50 µM | IC50 [6]: > 50 µM | IC50 [7]: > 50 µM

Fc1cccc(-c2nc(Nc3ccc(Cl)cc3)c3cc(F)ccc3n2)c1
IC50 [1]: 32.6 µM | IC50 [2]: 38.4 µM | IC50 [3]: > 50 µM | IC50 [4]: 32.6 µM | IC50 [5]: 40.3 µM | IC50 [6]: 45.7 µM | IC50 [7]: > 50 µM

Cc1ccccc1Nc1nc(-c2cccc(F)c2)nc2ccc(F)cc12
IC50 [1]: > 50 µM | IC50 [2]: > 50 µM | IC50 [3]: > 50 µM | IC50 [4]: > 50 µM | IC50 [5]: > 50 µM | IC50 [6]: > 50 µM | IC50 [7]: > 50 µM

Fc1cccc(-c2nc(Nc3ccccc3F)c3cc(F)ccc3n2)c1
IC50 [1]: > 50 µM | IC50 [2]: > 50 µM | IC50 [3]: > 50 µM | IC50 [4]: > 50 µM | IC50 [5]: > 50 µM | IC50 [6]: > 50 µM | IC50 [7]: > 50 µM

Nc1ccccc1Nc1nc(-c2cccc(F)c2)nc2ccc(F)cc12
IC50 [1]: 47.2 µM | IC50 [2]: 37.9 µM | IC50 [3]: > 50 µM | IC50 [4]: > 50 µM | IC50 [5]: > 50 µM | IC50 [6]: 41.3 µM | IC50 [7]: > 50 µM

Fc1cccc(Nc2nc(-c3cccc(F)c3)nc3ccc(F)cc23)c1
IC50 [1]: 42.3 µM | IC50 [2]: 49.6 µM | IC50 [3]: 47.6 µM | IC50 [4]: > 50 µM | IC50 [5]: > 50 µM | IC50 [6]: 43.1 µM | IC50 [7]: 48.7 µM

Fc1cccc(-c2nc(Nc3cccc(Cl)c3)c3cc(F)ccc3n2)c1
IC50 [1]: > 50 µM | IC50 [2]: > 50 µM | IC50 [3]: > 50 µM | IC50 [4]: > 50 µM | IC50 [5]: > 50 µM | IC50 [6]: > 50 µM | IC50 [7]: > 50 µM
